These results are taken from patent US20060148858A1, “1, 2-Azole derivatives with hypoglycemic and hypolipidemic activity” (priority 2002, published 2006).

One assay deals with T1, PPARγ-RXRα heterodimer (Homo sapiens, UniProt P37231).
T1 construct: expressed in transfected cells; host or cells: CHO-K1
T1 sequence (P37231 1-477 isoform P37231-2): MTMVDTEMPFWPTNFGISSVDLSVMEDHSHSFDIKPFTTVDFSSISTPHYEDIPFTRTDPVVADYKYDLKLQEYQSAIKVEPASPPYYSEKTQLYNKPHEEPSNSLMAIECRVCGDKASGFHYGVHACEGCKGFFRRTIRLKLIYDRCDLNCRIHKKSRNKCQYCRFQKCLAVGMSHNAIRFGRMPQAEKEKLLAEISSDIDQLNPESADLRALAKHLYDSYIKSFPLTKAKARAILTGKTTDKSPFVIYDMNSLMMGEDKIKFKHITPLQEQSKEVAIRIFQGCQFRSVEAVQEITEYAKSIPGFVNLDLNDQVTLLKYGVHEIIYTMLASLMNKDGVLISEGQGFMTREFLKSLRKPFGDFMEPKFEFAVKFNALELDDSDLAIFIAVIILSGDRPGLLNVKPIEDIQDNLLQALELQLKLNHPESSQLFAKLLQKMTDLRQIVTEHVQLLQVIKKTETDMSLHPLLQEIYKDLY
T1 sequence (P19793 1-462 partner): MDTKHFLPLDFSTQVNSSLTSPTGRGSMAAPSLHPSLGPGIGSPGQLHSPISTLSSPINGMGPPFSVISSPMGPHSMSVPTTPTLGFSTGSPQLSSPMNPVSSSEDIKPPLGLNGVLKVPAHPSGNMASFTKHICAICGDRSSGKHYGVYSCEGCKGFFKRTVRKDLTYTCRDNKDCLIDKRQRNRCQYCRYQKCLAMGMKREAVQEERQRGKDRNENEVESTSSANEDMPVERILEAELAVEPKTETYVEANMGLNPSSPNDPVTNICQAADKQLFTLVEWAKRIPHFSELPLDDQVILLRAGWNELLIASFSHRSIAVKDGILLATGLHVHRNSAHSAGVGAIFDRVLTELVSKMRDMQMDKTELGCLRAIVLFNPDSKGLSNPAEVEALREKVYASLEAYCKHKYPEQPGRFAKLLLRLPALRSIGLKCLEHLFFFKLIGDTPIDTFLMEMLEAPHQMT
In words: PPARγ-RXRα heterodimer ligand activity, luciferase reporter in PPARγ:RXRα:4ERPP/CHO-K1 cells (Test Example 3). In kind it is cell-based. Particulars: 18-48 hours, concentration for 50% of the maximum fold induction. In short, it runs like this:
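Stable CHO-K1 line co-expressing hPPARγ/RXR with 4ERPP-TK luciferase reporter, 2×10^4 cells per well, treated 18-48 h at 37° C. in HAM F12 with 0.1% fatty acid-free BSA. Luciferase fold induction versus untreated taken as 1; EC50 is concentration giving 50% of maximal fold induction.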

The next assay has as its system KKAY mice. As to the kind of experiment: Hypoglycemic and hypolipidemic actions in mice (Test Example 1). In kind it is in vivo. Particulars: Mus musculus, po, 96 h, 0.005% in powdery diet, four days, non-treated group taken as 100%. In short, it runs like this: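 KKAY mice (9 to 12 weeks old, 5 per group) were fed diet containing 0.005% test compound ad libitum for four days. Plasma glucose and triglycerides from orbital venous blood were measured enzymatically, reported as % decrease relative to untreated group (100%).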

Setting [1] is: rate of decrease in blood glucose level, read-out: Hypoglycemic action (%).
The mark [2] stands for this setting: rate of decrease in blood triglyceride level, read-out: Hypolipidemic action (%).

Read-outs that look alike come from different tables or passages of the source.

By EC50 is commonly meant the concentration needed to bring the measured effect to its halfway point. Low values mean a more potent agent, high ones a less potent agent. On PPARγ-RXRα heterodimer, `CCC(CC)c1nn(-c2ccc(Br)cn2)cc1CCCOc1c(CC(=O)O)cccc1OC` [Example 351, (2-{3-[1-(5-bromo-2-pyridinyl)-3-(1-ethylpropyl)-1H-pyrazol-4-yl]propoxy}-3-methoxyphenyl)acetic acid] yielded an EC50 of 20 nM. In addition, the inhibition in vivo at 0.005 % in diet with KKAY mice (setting [1]) was 51%; with KKAY mice (setting [2]), 49%.
The like results for `CCC(CC)c1nn(-c2ccc(C(F)(F)F)cn2)cc1CCCOc1c(C)cccc1CC(=O)O` [Example 213, [2-(3-{3-(1-ethylpropyl)-1-[5-(trifluoromethyl)-2-pyridyl]-1H-pyrazol-4-yl}propoxy)-3-methylphenyl]acetic acid] were, in that order, 7.8 nM, 51% and 52%.
The like results for `CCOc1nn(-c2ccc(C(F)(F)F)cn2)cc1CCCOc1ccccc1CC(=O)O` [Example 31, (2-(3-{3-ethoxy-1-[5-(trifluoromethyl)-2-pyridyl]-1H-pyrazol-4-yl}propoxy)phenyl]acetic acid] were, in that order, 35 nM, 50% and 69%.
The like results for `COc1cccc(CC(=O)O)c1OCCCc1cn(-c2ccc(C(F)(F)F)nn2)nc1C(C)C` [Example 274, [2-(3-{3-isopropyl-1-[6-(trifluoromethyl)pyridazin-3-yl]-1H-pyrazol-4-yl}propoxy)-3-methoxyphenyl]acetic acid] were, in that order, 82 nM, 50% and 60%.
Turning to `COc1cccc(CC(=O)O)c1OCCCc1cn(-c2ccc(C(F)(F)F)cn2)nc1C(C)C` [Example 181, [2-(3-{3-isopropyl-1-[5-(trifluoromethyl)-2-pyridyl]-1H-pyrazol-4-yl}propoxy)-3-methoxyphenyl]acetic acid], the EC50 on PPARγ-RXRα heterodimer was 75 nM. Moreover, the inhibition in vivo at 0.005 % in diet in the assay on KKAY mice (setting [1]) and in the assay with KKAY mice (setting [2]) was 49% in each case.
